Measured values from patent US9657059B2, “Immune system modulators” (Canimguide Therapeutics AB, priority 2013, dated 2017).
No end group written: not given here.

Experiments:
P3028 = P3028 (Homo sapiens, UniProt P02768); experiment: Chip ELISA: binding of His-tag labeled P3028 to cyclic peptides, positional scan
Procedure: In order to identify cyclic peptides that bind to P3028, all possible variants of di- and tripeptides were synthesized on chips and the binding of the His-tag labeled P 3028 was analyzed using the ELISA-technique. Based on the identified binding motifs, looped 6-meres were produced and tested. […] Positional scans were performed in each position of the lead cyclic peptide was replaced with each of the other 19 L-amino acids. Binding of each of the substituted peptides was tested, and peptide sequences with even better binding capacity than that of the lead peptide were identified.

[1] = test system: NK-cell cytotoxicity against K562 target cells; type: cell-based, human
Procedure: The ability of specific albumin fragments to impact NK-cell cytotoxicity was also evaluated. In these experiments, synthetic peptides corresponding to albumin fragments (P3028, P3026, and P3027) (SEQ ID NOs: 185, 183, and 184, respectively) were prepared and the amount of lysis of K562 target cells was assessed (see Example 4).

K562 target cells = experiment: NK-cell cytotoxicity (NKTEST); type: cell-based, human; settings: 10 ug/ml, effector:target 40:1, four donors
Procedure: The NK-cell cytotoxic activity of blood mononuclear cells from four healthy donors was tested. Mononuclear cells were separated by standard Ficoll-paque Plus (Pharmacia AB, Sweden) density gradient centrifugation from heparinized blood obtained from healthy donors. NK cell cytotoxic activity of the mononuclear cells was then tested using a commercial kit (NKTEST, Orpegen Pharma GmblI, Heidelberg, Germany) following the manufacturers protocol. Briefly, the kit contains cryopreserved, NK-sensitive target cells (K562) labeled with a lipophilic green fluorescent membrane dye, which enables discrimination of effector and target cells. After incubation with effector cells, killed target cells are identified by a DNA-stain, which penetrates and specifically stain the nuclei of dead target cells. This way the percentage of killed targets can be determined by flow cytometry. The mononuclear cells were preincubated for 30 min at 37° C. with the indicated peptides (peptides have been described previously) at 10 ug/ml. Target cells were then added, giving an effector:target ratio of 40:1, and the cell mixture incubated at 37° C. for 3-4 hours. Samples were analysed on a FACSCalibur (BD Biosciences, San Jose, Calif.).

[2] = test system: PBMCs from a healthy control; experiment: PBMC activation (CD69, CD71) by flow cytometry in RPMI plus 10% human AB serum; type: cell-based; settings: 40 μg/mL; for PBMC activation, cells with enhanced CD69: 24 hours
Procedure: FIG. 41 is a series of graphs illustrating effects of modified peptides on activation of PBMCs from healthy control person. PBMCs were incubated with the peptides (40 μg/mL) for 24 hours in RPMI plus 10% human AB serum. Activation is determined as percentage of cells with enhanced marker CD69 using flow cytometry. FIG. 41A illustrates results of two experiments (410 and 412) performed for each peptide. FIG. 41B illustrates results of two experiments (414 and 416) performed for each peptide.
FIG. 42 is a series of graphs illustrating effects of the full length peptide P28R and the 6 amino acid central sequence (32230, FFVKLS, SEQ ID NO: 62) in culture medium containing normal human AB serum. Activation is determined as percentage of cells with enhanced marker CD69 or CD71 using flow cytometry. PBMCs were incubated with the peptides (40 μg/mL) for 24 hours in RPMI plus 10% human AB serum. FIG. 42A illustrates the results of two experiments (420 and 422) performed for each peptide. FIG. 42B illustrates the results of two experiments (424 and 426) performed for each peptide.
FIG. 46 is a series of graphs illustrating Effect of modified peptides on activation of PBMCs from healthy control person. […] PBMCs were incubated with the peptides (40 μg/mL) for 48 hours in RPMI plus 10% human AB serum.
Based on the positional scan data, it is contemplated that substitutions of SEQ ID NO: 2 can be useful in accordance with some embodiments herein for binding P3028, de-blocking the LFA-1 receptor from P3028-mediated inhibition (e.g. displacing bound P3028 peptide and P3028-structure containing molecules from the LFA-1 receptor), and/or stimulating immune cells. The activity of peptide P28R (SEQ ID NO: 2) and modifications of P28R was studied in a human ex vivo model using PBMCs from a healthy control human in short term cultures, and with PBMC activation measured as a percentage of cells with enhanced CD69 (see Example 37).
As P28R (SEQ ID NO: 2) can bind to P3028 and stimulate PBMC's from healthy controls in short term cultures, for example when in a culture medium comprising RPMI plus 10% normal human AB serum (see Example 37), it is contemplated that truncations of P28R in accordance with some embodiments herein can be useful for binding to inhibitors of any one or more of the peptides listed in Tables 1-4. Truncations of P28R were assessed for their ability to activate PBMC's (see Example 38). PBMCs were incubated with the peptides (40 μg/mL) for 24 hours in RPMI plus 10% human AB serum. PBMC activation was measured as percent cells with enhanced expression of either CD69 (FIG. 42A) or CD71 (FIG. 42B) using flow cytometry. […] However, PBMCs were also incubated with the peptides in cancer sera from dogs, or in caner sera from human cancer patients (see FIG. 43). […] As such, it is contemplated that in accordance with some embodiments herein, P28R, P28 core, or combinations of these peptides are useful for stimulating immune cells in the serum of a subject that has cancer.
Effects of modified peptides on the activation of PBMCs from a healthy control person were assessed (see Example 41). PBMCs were incubated with the peptides (40 μg/mL) for 48 hours in RPMI plus 10% human AB serum, and PBMC activation was determined by flow cytometry based on the percentage of cells with enhanced marker CD69 or CD71. Peptides P28R (SEQ ID NO: 2), P28 core (peptide 32230) (SEQ ID NO: 62), 32251 ([…]) (SEQ ID NO: 592), 32814 ([…]) (SEQ ID NO: 586), 32815 ([…]) (SEQ ID NO: 595), 32665 ([…]) (SEQ ID NO: 593), and 32819 ([…](C(PEG24))) (SEQ ID NO: 594) were tested. […] Accordingly, it is contemplated herein that

PBMCs [3] = experiment: PBMC activation (CD69/CD71, flow cytometry) in RPMI plus 10% human AB serum; type: cell-based; settings: healthy control person, 40 μg/mL; for PBMC activation, cells with enhanced CD69: 24 hours
Procedure: The activity of peptide P28R (SEQ ID NO: 2) and modifications of P28R was studied in a human ex vivo model using PBMCs in short term cultures, 24 or 48 hours. Effects of P28R and modifications of P28R on PBMC's from a healthy control person were studied. Activation was measured as percentage of cells with enhanced marker CD69 using flow cytometry. PBMCs were incubated with the peptides (40 μg/mL) for 24 hours in RPMI plus 10% human AB serum.
As observed in Example 37, P28R (SEQ ID NO: 2) can stimulate PBMC's from healthy controls in short term cultures when RPMI plus 10% normal human AB serum is used as culture medium. Truncations of P28R were also assessed for their ability to activate PBMC's. PBMCs were incubated with the peptides (40 μg/mL) for 24 hours in RPMI plus 10% human AB serum. PBMC activation was measured as percent cells with enhanced expression of either CD69 (FIG. 42A) or CD71 (FIG. 42B) using flow cytometry. Two experiments were performed for each peptide.
Effects of modified peptides on activation of PBMCs from healthy control person were assessed. Activation was determined as percentage of cells with enhanced marker CD69 or CD71 using flow cytometry. PBMCs were incubated with the peptides (40 μg/mL) for 48 hours in RPMI plus 10% human AB serum.

PBMCs [4] = experiment: IL-2 induced proliferation of PBMCs, ex vivo model (3H-thymidine); type: cell-based, human; settings: PBMCs from healthy control samples, 7 days
Procedure: 100 μl of RPMI1640 supplemented with 200 IU/ml penicillin, […] streptomycin, 4 mM L-glutamine (all from Sigma Chemical Co. MO, US) and 20% heat-inactivated human serum (autologous or from cancer patients) were added to uncoated, HSA or HSA/IgG coated tissue culture microtiter plates. PBMC, isolated from healthy individuals or patients with metastatic renal cell carcinoma, were diluted in RPMI/2% HSA at a concentration of 5×10^5/ml and 100 μl were added to the microtiter wells. Interleukin-2 (IL-2, Proleukin, Chiron, NL), at a final concentration of 120 IU/well, was added to some wells. Cells were cultured for 7 days in a humidified, 5% CO2-atmosphere at 37° C. Proliferation was assayed by incorporation of 1.6 μCi/well of [^3H]-thymidine (Amersham Int., UK) during the last 18 hrs. Mean values of dpm (disintegrations per minute) of triplicates were used for the calculations.
Cultures for IL-2 induced proliferation was set up with PBMC from healthy donors and autologous serum as described above with the exception that PBMC were first pre-incubated for 30 min at room temperature with the indicated albumin peptides at a concentration of 10 μg/ml. […]
The effect of different peptides on IL-2 induced proliferation was analyzed in the human ex vivo model, using PBMCs from healthy control samples. […] Proliferation was measured as incorporation of ^3H-thymidine during the final 18 hours. […]

CLRLIVMCG [SEQ ID NO: 266]
binding to P3028, positional scan (P3028): highest affinity

CLRLNVFCG [SEQ ID NO: 265]
binding to P3028, positional scan (P3028): highest affinity

ELFEQLGEYKFQNALLVR [P3027]
effect on NK-cell cytotoxicity [1]: Inhibition was not seen | effect on NK-cell cytotoxicity (percent specific lysis) (K562 target cells): Inhibition was not seen

KKLDTFFVYLSLFTER [compound 31135]
PBMC activation, cells with enhanced CD69 [2]: directly stimulate | PBMC activation, cells with enhanced CD69 (PBMCs [3]): also stimulated immune cells

KKLDTVMVKLQLMTER [compound 30680]
PBMC activation, cells with enhanced CD69 [2]: did not stimulate | PBMC activation, cells with enhanced CD69 (PBMCs [3]): induced activation of PBMCs

KVPQVSTPTLVEVSR (listed as Homo sapiens) [P3029]
effect on IL-2 induced proliferation (PBMCs [4]): none of the other peptides identified by their binding to the artificial cell surface had any inhibitory activity

RKLDTFFVKLSLFTERRR [compound 32814]
PBMC activation, cells with enhanced CD69 and CD71 ([2]; 48 hours): stimulatory effect in short term cultures similar to that of P28R | PBMC activation, enhanced CD69 or CD71 (PBMCs [3]; 48 hours): stimulatory effect in short term cultures similar to that of P28R
